In patent US20220125837A1, “METHODS FOR CONTROLLED ELIMINATION OF THERAPEUTIC CELLS” (Bellicum Pharmaceuticals, Inc., priority 2014, published 2022):
“And” between values parts separate entries of the source, which are not always exact repeats. Identical values can stand only once.

Legend:
[1] = tested on: iCasp9M-transduced EBV-CTLs; assay: CID-induced elimination of GFP+ iCasp9M-transduced EBV-CTLs (flow cytometry); format: cell-based, human
[2] = tested on: F-Casp9M.I.GFPhigh-transduced T cells; assay: Annexin V/7-AAD staining of iCasp9M GFPhigh T cells after CID; format: cell-based, human
Description: CID (AP20187; ARIAD Pharmaceuticals) at indicated concentrations was added to transfected 293T cells or transduced CTLs. Adherent and nonadherent cells were harvested and washed with annexin binding buffer (BD Pharmingen, San Jose, Calif.). Cells were stained with annexin-V and 7-amino-actinomycin D (7-AAD) for 15 minutes according to the manufacturer's instructions (BD Pharmingen). Within 1 hour after staining, cells were analyzed by flow cytometry using CellQuest software (Becton Dickinson).
A representative example of 3 separate experiments is shown.
For clinical applications therefore, versions of the expression constructs with selectable markers that allow selection for high copy number, high levels of expression, or both high copy number and high levels of expression may be desirable. […] The dose response remained unchanged for at least 4 weeks after transduction.

MT-2 cells = assay: CID-induced apoptosis (annexin V) in transduced MT-2 cells; format: cell-based, human; settings: 10 nM CID for 8 hours
[3] = tested on: gene-modified allodepleted cells (SFG.iCasp9.2A.CD19); assay: Suicide gene function after extended culture and reactivation; format: cell-based, human
Description: Cells were maintained in T cell medium containing 50 U/ml IL-2 until 22 days after transduction. A portion of cells was reactivated on 24-well plates coated with […] OKT3 and 1 μg/ml anti-CD28 (Clone CD28.2, BD Pharmingen, San Jose, Calif.) for 48 to 72 hours. CD19 expression and suicide gene function in both reactivated and non-reactivated cells were measured on day 24 or 25 post transduction.
To assess the stability of transgene expression and function, cells were maintained in T cell culture medium and low dose IL-2 (50 U/ml) until […] after transduction. A portion of cells was then reactivated with OKT3/anti-CD28. CD19 expression was analyzed by flow cytometry 48 to 72 hours later, and suicide gene function was assessed by treatment with 10 nM AP20187. The obtained are for cells from day 5 post transduction (ie, 1 day after CD 19 selection) and day 24 post transduction, with or without 48-72 hours of reactivation (5 experiments). In 2 experiments, CD25 selection was performed after OKT3/aCD28 activation to further enrich activated cells. Error bars represent standard deviation. * indicates p<0.05 when compared to cells from day 5 post transduction. By day 24, surface CD19 expression fell from about 98%±1% to about 88%±4% (p<0.05) with a parallel decrease in mean fluorescence intensity (MFI) from 793±128 to 478±107 (p<0.05) (see FIG. 13B). Similarly, there was a significant reduction in suicide gene function: residual viability was 19.6±5.6% following treatment with AP20187; after correction for baseline viability of 54.8±20.9%, this equated to killing efficiency of only 63.1±6.2%.
To determine whether the decrease in transgene expression with time was due to reduced transcription following T cell quiescence or to elimination of transduced cells, a portion of cells were reactivated on day 22 post transduction with OKT3 and anti-CD28 antibody. […] CD19 expression increased from about 88%±4% to about 93%±4% (p<0.01) and CD19 MFI increased from 478±107 to 643±174 (p<0.01). […] 2±1.2%, which was the same as killing efficiency on day 5 post transduction (93.1±3.5%). Killing of the CD25 negative fraction was 78.6±9.1%.

non-transduced cells = assay: Viability of non-transduced cells with AP20187; format: cell-based, human; settings: n=6
Description: Suicide gene functionality was assessed by adding a small molecule synthetic homodimerizer, AP20187 (Ariad Pharmaceuticals; Cambridge, Mass.), at 10 nM final concentration the day following CD19 immunomagnetic selection. Cells were stained with annexin V and 7-amino-actinomycin (7-AAD)(BD Pharmingen) at 24 hours and analyzed by flow cytometry. Cells negative for both annexin V and 7-AAD were considered viable, cells that were annexin V positive were apoptotic, and cells that were both annexin V and 7-AAD positive were necrotic. The percentage killing induced by dimerization was corrected for baseline viability as follows: Percentage killing=100%−(% Viability in AP20187-treated cells÷% Viability in non-treated cells).
The day following immunomagnetic selection, 10 nM of the chemical inducer of dimerization, AP20187, was added to induce apoptosis, which appeared within 24 hours.

virus-specific T cells = assay: AP20187 on allostimulated gene-modified cells, pentamer analysis of virus-specific T cells; format: cell-based, human; settings: 10 nM; after 4 days reactivation with allogeneic PBMC
Description: In some experiments, cells also were cultured for 3 weeks post transduction and stimulated with 30G-irradiated allogeneic PBMC at a responder:stimulator ratio of 1:1. After 4 days of co-culture, a portion of cells was treated with 10 nM AP20187. Killing was measured by annexin V/7-AAD staining at 24 hours, and the effect of dimerizer on bystander virus-specific T cells was assessed by pentamer analysis on AP20187-treated and untreated cells.
An observation of note was that many virus-specific T cells were spared when dimerizer was used to deplete gene-modified cells that have been re-activated with allogeneic PBMC, rather than by non-specific mitogenic stimuli. […] Gene-modified allodepleted cells were maintained in culture for 3 weeks post-transduction to allow transgene down-modulation. Cells were stimulated with allogeneic PBMC for 4 days, following which a portion was treated with 10 nM AP20187.
The frequency of EBV-specific T cells and CMV-specific T cells were quantified by pentamer analysis before allostimulation, after allostimulation, and after treatment of allostimulated cells with dimerizer. The percentage of virus-specific T cells decreased after allostimulation. Following treatment with dimerizer, virus-specific T cells were partially and preferentially retained.

[4] = tested on: differentiated iCasp9-positive MSCs; assay: Apoptosis of differentiated iCasp9 MSCs after CID (TUNEL, cell density); settings: adipocytic differentiation; 50 nM CID; 24 hours; from 584
iCasp9-transduced MSCs = assay: Apoptosis of iCasp9-ΔCD19 transduced undifferentiated MSCs after CID (annexin V/7-AAD)
[5] = T cells selected for high expression, overnight 10 nM CID, mean
[6] = representative example of 3 experiments

CC[C@H](C(=O)N1CCCC[C@H]1C(=O)O[C@H](CCc1ccc(OC)c(OC)c1)c1cccc(OCC(=O)NCC(CNC(=O)COc2cccc([C@@H](CCc3ccc(OC)c(OC)c3)OC(=O)[C@@H]3CCCCN3C(=O)[C@@H](CC)c3cc(OC)c(OC)c(OC)c3)c2)CN(C)C)c1)c1cc(OC)c(OC)c(OC)c1 [AP20187] was tested, and the “reduction in mean fluorescence intensity of GFP after CID” value ([1]; CTLs that survived CID treatment) was 70%, the “CID sufficient to obtain the maximal deletion effect” value ([1]; F-Casp9M.I.GFPhigh, survival of GFP+ cells on day 7) was 1 nM and the “Elimination of GFP+ cells” value ([1]; iCasp9M-transduced CTLs, GFPhigh, 1:1 with nontransduced, 10 nM CID, day 7) was 99.2%+/−0.14%. The “GFP+ cells eliminated” value ([1]; single 10-nM dose of CID, unselected iCasp9M CTLs, 5 donors) was 91.3%, the “apoptotic (annexin-V+/7-AAD−) phenotype” value [2, 5] was 64% and the “necrotic (annexinV+/7-AAD+) phenotype” value [2, 5] was 30%. For the same compound, the “apoptotic phenotype (annexin V+, 7-AAD−)” value [2, 6] was 64%, the “necrotic phenotype (annexin V+, 7-AAD+)” value [2, 6] was 32% and the “apoptosis (annexin-V staining)” value (MT-2 cells; iCasp9M-transduced MT-2) was 57.9%+/−11.9%. The “apoptosis (annexin-V staining)” value (MT-2 cells; iFas-transduced MT-2) was 19.3%+/−8.4%, the killing ([3]; CD25 negative fraction) was 78.6±9.1% and the killing efficiency ([3]; OKT3/aCD28-reactivated cells, day 24 or 25) was ~84.6%±8.0%. For the same compound, the killing efficiency ([3]; day 5 post transduction) was 93.1±3.5%, the killing efficiency ([3]; day 24 post transduction, non-reactivated) was 63.1±6.2% and ~63.1%±6.2% and the “residual viability following treatment with AP20187” value ([3]; day 24 post transduction, non-reactivated, 10 nM) was 19.6±5.6%. The “viability of non-transduced cells with AP20187” value (non-transduced cells) was “about 86%±9%”, the “effect on virus-specific T cells” value (virus-specific T cells) was “spares (and thereby enriches) viral reactive subpopulations” and the “cell density after CID” value [4] was under 14 cells/mm2. For the same compound, the “apoptosis index of iCasp9-negative cells” value (iCasp9-transduced MSCs; 50 nM CID, 24 hrs) was 20±7%, the “annexin positive, negative population (iCasp neg/CID)” value (iCasp9-transduced MSCs; 50 nM CID, representative FACS) was 19% and the “annexin positive, non-transduced control MSC (Control/CID)” value (iCasp9-transduced MSCs; 50 nM CID, representative FACS) was 15%. The “apoptotic death of iCasp9-positive cells” value (iCasp9-transduced MSCs; 50 nM CID, within 24 hrs) was 93±1% and the “immunoselected iCasp9-CD19-positive cells apoptotic after CID” value (iCasp9-transduced MSCs; magnetic immunoselection) was “More than 95%”.
